According to patent US11590116B2 (THERAVANCE BIOPHARMA R&D IP, LLC, priority 2019, dated 2023):

Legend:
[1] = molecular target: T1, recombinant human ALK5 (TGF-βR1) protein (Homo sapiens, UniProt P36897); assay: Biochemical ALK5 (TGF-βR1) assay to measure pKi (LANCE Ultra ULight kinase assay); conditions: apparent pKi from pIC50 by Cheng-Prusoff, read-out: ALK5 pKi (converted)
T1 construct: purchased Life Technologies PR9075A
T1 sequence (P36897 34-503): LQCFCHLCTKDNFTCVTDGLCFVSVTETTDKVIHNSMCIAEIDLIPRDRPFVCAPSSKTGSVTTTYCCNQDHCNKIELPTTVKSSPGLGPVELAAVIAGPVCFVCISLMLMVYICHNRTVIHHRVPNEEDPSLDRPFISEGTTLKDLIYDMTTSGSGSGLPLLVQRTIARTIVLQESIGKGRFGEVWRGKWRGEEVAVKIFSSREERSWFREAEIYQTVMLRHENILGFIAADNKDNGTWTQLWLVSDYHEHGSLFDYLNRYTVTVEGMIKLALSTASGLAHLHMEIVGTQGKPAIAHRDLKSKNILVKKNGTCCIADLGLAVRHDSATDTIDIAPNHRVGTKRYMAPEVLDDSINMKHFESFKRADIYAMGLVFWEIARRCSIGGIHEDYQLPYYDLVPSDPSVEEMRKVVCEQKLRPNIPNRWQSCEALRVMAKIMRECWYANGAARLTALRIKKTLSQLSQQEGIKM
Outline: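 Dose range 10 μM–25 pM; enzyme + compound 60 min RT; ATP added (5× stock 125 μM, 2 mM DTT); 60 min 37 °C; stop with EDTA + Eu anti-phospho-Topo IIα Thr1342 Ab; TR-FRET ex 320/340, em 665 nm. 4-param pIC50 → pKi (Cheng-Prusoff).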

[2] = system: TGF-β-stimulated SMAD3 phosphorylation in BEAS-2B cells; assay: Cellular ALK5 potency assay, inhibition of TGF-β stimulated pSMAD3 formation in BEAS-2B cells; format: cell-based; conditions: Homo sapiens; inhibition of TGF-β stimulated pSMAD3 formation, BEAS-2B cells; read-out: BEAS2B pIC50 (converted)
Outline: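 pSMAD3 was quantified by AlphaLISA in BEAS-2B lysates after 10 ng/mL TGF-β (final) for 30 min. Before stimulation, cells received compound for 1 h at 37° C in supplemented HBSS. Values are pIC50, relative to TGF-β-stimulated cells without compound.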

| SMILES | Ki [1] [nM] | IC50 [2] [nM] |
| --- | --- | --- |
| CNCCn1cc(-c2cnc3ccc(-c4c(-c5cccc(C)n5)nc5ccccn45)nc3c2)cn1 [Compound 527, N-methyl-2-(4-(6-(2-(6-methylpyridin-2-yl)imidazo[1,2-a]pyridin-3-yl)-1,5-naphthyridin-3-yl)-1H-pyrazol-1-yl)ethan-1-amine] | 0.0398 to 0.316 | 25.1 to 158 |
| Cc1cccc(-c2n[nH]cc2-c2ccc3ncc(N4CCN(C5(C(N)=O)CCCC5)CC4)cc3n2)n1 [Compound 528, 1-[4-[6-[3-(6-methyl-2-pyridyl)-1H-pyrazol-4-yl]-1,5-naphthyridin-3-yl]piperazin-1-yl]cyclopentanecarboxamide] | 0.398 to 3.16 | 200 to 1260 |
| Cc1cccc(-c2n[nH]cc2-c2ccc3ncc(N4CCNCC4)cc3c2)n1 [Compound 529, 6-[3-(6-methyl-2-pyridyl)-1H-pyrazol-4-yl]-3-piperazin-1-yl-quinoline] | < 0.0316 | < 20 |
| Cc1cccc(-c2n[nH]cc2-c2ccc3ncc(NC(=O)CCN4CCN(C(C)C)CC4)cc3n2)n1 [Compound 530, 3-(4-isopropylpiperazin-1-yl)-N-[6-[3-(6-methyl-2-pyridyl)-1H-pyrazol-4-yl]-1,5-naphthyridin-3-yl]propanamide] | 0.0398 to 0.316 | 25.1 to 158 |
| Cc1cccc(-c2[nH]cnc2-c2ccc3ncc(C4=CCCC(N)C4)cc3c2)n1 (centres unmarked) [Compound 531, 3-[6-[5-(6-methyl-2-pyridyl)-1H-imidazol-4-yl]-3-quinolyl]cyclohex-3-en-1-amine] | < 0.0316 | < 20 |
| CCc1cccc(-c2n[nH]cc2-c2ccc3ncc(N4CCC(N5CCCC5)CC4)cc3n2)n1 [Compound 532, 2-(3-(6-ethylpyridin-2-yl)-1H-pyrazol-4-yl)-7-(4-(pyrrolidin-1-yl)piperidin-1-yl)-1,5-naphthyridine] | < 0.0316 | 25.1 to 158 |
| Cc1cccc(-c2nnn(Cc3ccccc3)c2-c2ccc3ncc(N4CCC(N5CCN(C)CC5)CC4)cc3c2)n1 [Compound 533, 6-[3-benzyl-5-(6-methyl-2-pyridyl)triazol-4-yl]-3-[4-(4-methylpiperazin-1-yl)-1-piperidyl]quinoline] | 0.0398 to 0.316 | 200 to 1260 |
| Cc1nc(-c2n[nH]cc2-c2ccc3ncc(-c4cnn5c4NCC5)cc3n2)ccc1F [Compound 534, 7-(2,3-dihydro-1H-imidazo[1,2-b]pyrazol-7-yl)-2-[3-(5-fluoro-6-methyl-2-pyridyl)-1H-pyrazol-4-yl]-1,5-naphthyridine] | < 0.0316 | < 20 |
| Cc1cccc(-c2n[nH]cc2-c2ccc3ncc(N4CC5CNC5C4)cc3c2)n1 (centres unmarked) [Compound 535, 3-(3,6-diazabicyclo[3.2.0]heptan-3-yl)-6-[3-(6-methyl-2-pyridyl)-1H-pyrazol-4-yl]quinoline] | 0.0398 to 0.316 | 25.1 to 158 |
| Cc1nc(-c2[nH]cnc2-c2ccc3ncc(-c4cn[nH]c4)cc3n2)ccc1F [Compound 536, 2-[5-(5-fluoro-6-methyl-2-pyridyl)-1H-imidazol-4-yl]-7-(1H-pyrazol-4-yl)-1,5-naphthyridine] | < 0.0316 | < 20 |
| Cc1cccc(-c2n[nH]cc2-c2ccc3ncc(-c4cnc5n4CCNC5)cc3c2)n1 [Compound 538, 6-[3-(6-methyl-2-pyridyl)-1H-pyrazol-4-yl]-3-(5,6,7,8-tetrahydroimidazo[1,2-a]pyrazin-3-yl)quinoline] | 0.398 to 3.16 | 25.1 to 158 |
| Cc1nc(-c2n[nH]cc2-c2ccc3ncc(N4CCC(N5CCN(C)CC5)CC4)cc3n2)ccc1F [Compound 539, 2-[3-(5-fluoro-6-methyl-2-pyridyl)-1H-pyrazol-4-yl]-7-[4-(4-methylpiperazin-1-yl)-1-piperidyl]-1,5-naphthyridine] | < 0.0316 | 25.1 to 158 |
| Cc1cccc(-c2[nH]cnc2-c2ccc3ncc(C4=CCC(NC(C)C)CC4)cc3c2)n1 (centres unmarked) [Compound 540, N-isopropyl-4-[6-[5-(6-methyl-2-pyridyl)-1H-imidazol-4-yl]-3-quinolyl]cyclohex-3-en-1-amine] | < 0.0316 | 25.1 to 158 |
